In US4073908A, “8-Amino-theophylline derivatives and therapeutic applications thereof” (Laboratoire le Brun S.A., priority 1975, dated 1978):

Experiments:
Acute toxicity in rats = format: in vivo; conditions: rat, in vivo, po, single administration
Source text: (§1) Acute toxicity in mice by the sub-cutaneous and oral routes and in rats by the oral route was investigated by determination of the death rate following a single administration of increasing dosages.
(§2) Symbol > means that the LD50 is not attained at the dosage indicated.

Acute toxicity in mice = format: in vivo; conditions: mouse, in vivo, single administration
Source text: as §1, §2

[1] = tested on: aggressiveness subsequent to extended isolation in mice; experiment: Anti-aggressive: aggressiveness subsequent to extended isolation, mice; format: in vivo; conditions: Mus musculus, oral, read-out: Oral AD50, isolated mice
Description: (§3) c. aggressiveness subsequent to extended isolation, in mice,
(§4) In all cases, the AD50 values were determined by the oral route.

[2] = tested on: aggressiveness subsequent to electric shocks in mice; experiment: Anti-aggressive: aggressiveness subsequent to electric shocks, mice; format: in vivo; conditions: Mus musculus, oral, read-out: Oral AD50, electric shock in mice
Description: (§5) a. aggressiveness subsequent to electric shocks in mice and rats,
as §4

[3] = tested on: aggressiveness subsequent to apomorphine injection in rats; experiment: Anti-aggressive: aggressiveness subsequent to apomorphine injection, rats; format: in vivo; conditions: Rattus norvegicus, oral, apomorphine injection 1 mg/kg, read-out: Oral AD50, apomorphine, in rats
Description: (§6) b. aggressiveness subsequent to apomorphine injection (1 mg/kg, in vivo) in rats,
as §4

[4] = tested on: aggressiveness subsequent to electric shocks in rats; experiment: Anti-aggressive: aggressiveness subsequent to electric shocks, rats; format: in vivo; conditions: Rattus norvegicus, oral, read-out: Oral AD50, electric shock in rats
Description: as §5, §4

[5] = tested on: stereotypy induced by apomorphine injection in rats; experiment: Effect on stereotypy induced by apomorphine injection; format: in vivo
Source text: e. Effect on stereotypy induced by apomorphine injection in rats.

[6] = tested on: narcosis induced by ethanol in mice; experiment: Effect on narcosis induced by ethanol; format: in vivo
Source text: (§7) d. Effect on narcosis induced by pentobarbital and ethanol in mice.

[7] = tested on: aggressiveness in mice and rats; experiment: Anti-aggressive tests overall; format: in vivo; conditions: oral
Description: as §5, §6, §3
(§8) d. aggressiveness in mice-killing rats.
as §4

[8] = tested on: reserpine effect on temperature and ptosis; experiment: Anti-reserpine effect on temperature and ptosis; format: in vivo; conditions: compared with Imipramine
Source text: b. Anti-reserpine effect on temperature and ptosis.

rats [9] = experiment: Acute toxicity in rats; format: in vivo; conditions: single administration
Source text: as §1, §2

rats [10] = experiment: Oral subacute toxicity in rats; format: in vivo; conditions: 1 month old rats, up to a daily dosage of 100 mg/kg
Source text: Oral subacute toxicity in rats was investigated by determination of the death rate (if any), of the change in the weight of some organs, and by hematologic examinations, and the like.
Subacute toxicity in 1 month old rats, with compounds Nos. 11 and 18

[11] = tested on: cardiazol convulsions in mice; experiment: Anti-convulsant effect with respect to cardiazol; format: in vivo; conditions: compared with chlordiazepoxide
Source text: c. Anti-convulsant effect with respect to cardiazol in mice.

rotarod test in mice = experiment: Incapacitating effect: rotarod test; format: in vivo; conditions: compared with chlordiazepoxide
Source text: a. Incapacitating effect: rotarod test in mice.

[12] = tested on: aggressiveness in mice-killing rats; experiment: Anti-aggressive: aggressiveness in mice-killing rats; format: in vivo
Description: as §8, §4

catalepsy and ptosis = experiment: Neuroleptic effects: catalepsy and ptosis; conditions: in vivo
learning in rats = experiment: Effect on learning: Shuttle-box test; format: in vivo; conditions: compared with chlordiazepoxide
Source text: f. Effect on learning in rats: Shuttle-box test.

[13] = tested on: narcosis induced by pentobarbital in mice; experiment: Effect on narcosis induced by pentobarbital; format: in vivo; conditions: compared with chlordiazepoxide
Source text: as §7

mice = experiment: Acute toxicity in mice; format: in vivo; conditions: oral route, single administration
Source text: as §1, §2

[14] = tested on: carrage enin-induced edema in rats; experiment: Anti-inflammatory: carrageenin-induced edema in rats; format: in vivo; conditions: oral route
Description: The technique used was that of the carrage enin-induced edema in rats (oral route). The dosage which inhibits this edema by a factor of 50% was evaluated by interpolation.

[15] = tested on: cough induced by electric stimulation of the laryngeal nerve in cats; experiment: Anti-tussive: cough induced by electric stimulation of the laryngeal nerve; format: in vivo
Source text: 6. Anti-tussive activity against cough induced by electric stimulation of the laryngeal nerve in cats.

[16] = tested on: bronchospasm induced by histamine injection in guinea-pigs; experiment: Anti-histaminic: bronchospasm induced by histamine injection in guinea-pigs; format: in vivo; conditions: Cavia porcellus, oral, read-out: oral AD50, anti-histaminic activity
Description: This activity was determined according to the technique of the bronchospasm induced by histamine injection in guinea-pigs.

[17] = po, read-out: LD50, oral route, mice
[18] = sc, read-out: LD50, s.c. route, mice

Compound | LD50 (Acute toxicity in rats) [mg/kg] | LD50 (Acute toxicity in mice; [17]) [mg/kg] | LD50 (Acute toxicity in mice; [18]) [mg/kg] | further results
Cc1cccc(N2CCN(CCN3CCn4c3nc3c4c(=O)n(C)c(=O)n3C)CC2)c1 [Compound 1] | > 100 | > 300 | > 300 | –
Cc1ccc(N2CCN(CCN3CCn4c3nc3c4c(=O)n(C)c(=O)n3C)CC2)cc1C [Compound 2] | > 100 | > 300 | > 300 | –
COc1cccc(N2CCN(CCN3CCn4c3nc3c4c(=O)n(C)c(=O)n3C)CC2)c1 [Compound 3] | > 100 | > 300 | > 300 | ED50 [1]: 25 mg/kg; ED50 [2]: 30 mg/kg; ED50 [3]: 180 mg/kg; ED50 [4]: 100 mg/kg
COc1ccc(N2CCN(CCN3CCn4c3nc3c4c(=O)n(C)c(=O)n3C)CC2)cc1 [Compound 4] | > 100 | > 300 | > 300 | –
Cn1c(=O)c2c(nc3n2CCN3CCN2CCN(c3cccc(C(F)(F)F)c3)CC2)n(C)c1=O [Compound 5] | > 100 | > 300 | > 300 | –
Cn1c(=O)c2c(nc3n2CCN3CCN2CCN(c3cccc(F)c3)CC2)n(C)c1=O [Compound 6] | > 100 | > 300 | > 300 | –
Cn1c(=O)c2c(nc3n2CCN3CCN2CCN(c3ccc(F)cc3)CC2)n(C)c1=O [Compound 7] | > 100 | > 300 | > 300 | –
Cn1c(=O)c2c(nc3n2CCN3CCN2CCN(c3cccc(Br)c3)CC2)n(C)c1=O [Compound 8] | > 100 | > 300 | > 300 | –
Cn1c(=O)c2c(nc3n2CCN3CCN2CCN(c3cccc(I)c3)CC2)n(C)c1=O [Compound 9] | > 100 | > 300 | > 300 | –
Cn1c(=O)c2c(nc3n2CCN3CCN2CCN(c3ccccc3Cl)CC2)n(C)c1=O [Compound 10] | > 100 | > 300 | > 300 | –
Cn1c(=O)c2c(nc3n2CCN3CCN2CCN(c3cccc(Cl)c3)CC2)n(C)c1=O [Compound 11] | – | – | > 300 | apomorphinic anti-stereotypy [5]: absence of apomorphinic anti-stereotypy; ED50 [1]: 10 mg/kg; ethanol-induced narcosis-potentiating effect [6]: does not, as the latter compound, exhibit incapacitating, anti-convulsant, pentobarbitalor ethanol-induced narcosis-potentiating; anti-aggressive activity (in words) [7]: in most cases, are superior to those of chlordiazepoxide in the anti-aggressive tests; anti-reserpinic effect [8]: absence of anti-reserpinic effect; ED50 [2]: 30 mg/kg; LD50, oral route, rats (rats [9]): 1000 mg/kg; ED50 [3]: 140 mg/kg; death rate (fatal issue) (rats [10]): No fatal issue was noted; anti-convulsant effect [11]: does not, as the latter compound, exhibit incapacitating, anti-convulsant; ED50 [4]: 45 mg/kg; incapacitating effect (rotarod test in mice): does not, as the latter compound, exhibit incapacitating; ED50 ([12]; Rattus norvegicus, oral, read-out: Oral AD50, mice-killing rats): 50 mg/kg; activity in the mice-killing test in rats relative to Imipramine ([12]; compared with Imipramine): Superior to Imipramine in the mice-killing test in rats; catalepsy (catalepsy and ptosis): absence of apomorphinic anti-stereotypy, of catalepsy; ptosis (catalepsy and ptosis): absence of apomorphinic anti-stereotypy, of catalepsy and of ptosis; learning-delaying effect (learning in rats): does not, as the latter compound, exhibit incapacitating, anti-convulsant, pentobarbitalor ethanol-induced narcosis-potentiating, or learning-delaying effects; pentobarbital-induced narcosis-potentiating effect [13]: does not, as the latter compound, exhibit incapacitating, anti-convulsant, pentobarbitalor ethanol-induced narcosis-potentiating; LD50, oral route, mice (mice): 450 mg/kg
Cn1c(=O)c2c(nc3n2CCN3CCN2CCN(c3ccc(Cl)cc3)CC2)n(C)c1=O [Compound 12] | > 100 | 120 | > 300 | anti-inflammatory activity (in words) [14]: the more active, the activities being substantially equivalent to those of phenyl butazone; anti-tussive activity (in words) [15]: most active compound investigated; ED50 [16]: 1.5 mg/kg
Cn1c(=O)c2c(nc3n2CCN3CCN2CCN(c3cccc(Cl)c3Cl)CC2)n(C)c1=O [Compound 13] | > 100 | > 300 | > 300 | –
Cn1c(=O)c2c(nc3n2CCN3CCN2CCN(c3ccc(Cl)c(Cl)c3)CC2)n(C)c1=O [Compound 14] | > 100 | > 300 | > 300 | –
